Common to all, as to assay: biochemical
Holding throughout (parameters): KINOMEscan active-site competition binding panel (468 kinase assays), per cent of control at 1000 nM
Holding throughout (details): KINOMEscan per cent of control (binding competition); read-out: Percent Control

For one assay, the target named is NLK (Homo sapiens, UniProt Q9UBE8). From the text:
(§1) Figure S7 / Percent Control

The target of the next assay is PIK3C2G (Homo sapiens, UniProt O75747).
Description: as §1

A further assay addresses PHKG2 (Homo sapiens, UniProt P15735).
Description: as §1

Another assay addresses EGFR(L747-T751del,Sins) (Homo sapiens, UniProt P00533, DEL747-750/T751S).
Description: as §1

Another assay concerns the target RIPK2 (Homo sapiens, UniProt O43353).
Description: as §1

The target of another assay is MAP3K3 (Homo sapiens, UniProt Q99759).
MAP3K3, sequence (Q99759 whole entry): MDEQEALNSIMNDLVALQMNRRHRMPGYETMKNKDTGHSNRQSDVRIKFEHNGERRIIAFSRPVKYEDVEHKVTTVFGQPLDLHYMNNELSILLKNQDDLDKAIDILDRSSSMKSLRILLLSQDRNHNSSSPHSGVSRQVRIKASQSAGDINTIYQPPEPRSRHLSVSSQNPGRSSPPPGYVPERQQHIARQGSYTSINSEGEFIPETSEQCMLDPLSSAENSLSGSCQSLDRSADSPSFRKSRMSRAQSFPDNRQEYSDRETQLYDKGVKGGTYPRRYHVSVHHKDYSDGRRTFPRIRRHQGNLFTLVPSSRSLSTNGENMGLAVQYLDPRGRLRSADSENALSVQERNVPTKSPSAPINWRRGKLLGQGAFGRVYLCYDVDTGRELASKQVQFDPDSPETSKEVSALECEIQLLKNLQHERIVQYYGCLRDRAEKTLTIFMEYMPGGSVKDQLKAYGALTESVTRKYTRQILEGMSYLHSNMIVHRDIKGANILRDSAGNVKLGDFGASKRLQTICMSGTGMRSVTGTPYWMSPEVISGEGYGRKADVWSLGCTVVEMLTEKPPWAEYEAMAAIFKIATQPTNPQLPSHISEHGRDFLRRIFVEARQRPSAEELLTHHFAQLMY
Description: as §1

For the next assay, the target named is FLT3(N841I) (Homo sapiens, UniProt P36888, N841I).
Description: as §1

The next assay deals with EGFR(S752-I759del) (Homo sapiens, UniProt P00533, DEL752-759).
EGFR(S752-I759del), sequence (P00533 with tags, fused parts or gaps DEL752-759): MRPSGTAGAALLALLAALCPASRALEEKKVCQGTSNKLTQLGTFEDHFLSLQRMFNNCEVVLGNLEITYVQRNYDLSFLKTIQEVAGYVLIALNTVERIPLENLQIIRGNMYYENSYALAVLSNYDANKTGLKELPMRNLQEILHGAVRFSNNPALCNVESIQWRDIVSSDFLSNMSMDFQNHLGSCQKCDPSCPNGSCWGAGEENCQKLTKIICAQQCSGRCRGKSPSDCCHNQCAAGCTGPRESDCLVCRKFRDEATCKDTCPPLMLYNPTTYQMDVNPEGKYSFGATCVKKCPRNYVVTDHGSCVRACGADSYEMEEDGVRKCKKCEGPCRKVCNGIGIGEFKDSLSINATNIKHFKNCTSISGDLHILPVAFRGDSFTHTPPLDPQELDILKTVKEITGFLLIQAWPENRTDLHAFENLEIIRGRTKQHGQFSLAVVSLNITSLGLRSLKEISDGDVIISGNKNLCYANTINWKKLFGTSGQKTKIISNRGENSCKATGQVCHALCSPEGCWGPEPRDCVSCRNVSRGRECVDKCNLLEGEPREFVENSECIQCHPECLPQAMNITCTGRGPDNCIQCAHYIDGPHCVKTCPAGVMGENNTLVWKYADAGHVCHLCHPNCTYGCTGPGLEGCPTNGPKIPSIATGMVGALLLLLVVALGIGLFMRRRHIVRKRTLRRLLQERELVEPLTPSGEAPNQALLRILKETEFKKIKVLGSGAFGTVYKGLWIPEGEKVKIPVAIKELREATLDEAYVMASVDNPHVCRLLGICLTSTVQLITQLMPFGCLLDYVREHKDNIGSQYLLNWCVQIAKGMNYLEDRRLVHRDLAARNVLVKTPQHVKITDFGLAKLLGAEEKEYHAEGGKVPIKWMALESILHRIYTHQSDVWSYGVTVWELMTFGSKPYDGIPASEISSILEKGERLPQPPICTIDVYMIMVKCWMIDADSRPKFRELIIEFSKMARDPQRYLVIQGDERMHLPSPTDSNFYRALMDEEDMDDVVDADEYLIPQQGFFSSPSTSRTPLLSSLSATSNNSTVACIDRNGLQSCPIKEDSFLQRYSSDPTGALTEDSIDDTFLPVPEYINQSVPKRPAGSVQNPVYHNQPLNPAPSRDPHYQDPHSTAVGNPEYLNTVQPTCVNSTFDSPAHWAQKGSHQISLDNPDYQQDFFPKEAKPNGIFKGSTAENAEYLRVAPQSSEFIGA
Description: as §1

In a further assay the target is AURKC (Homo sapiens, UniProt Q9UQB9).
Description: as §1

Another assay deals with MET (Homo sapiens, UniProt P08581).
Description: as §1

In another assay the target is LIMK2 (Homo sapiens, UniProt P53671).
Description: as §1

Another assay has as its target PIK3CA(E545A) (Homo sapiens, UniProt P42336, E545A).
Description: as §1

The next assay concerns the target CSNK1G1 (Homo sapiens, UniProt Q9HCP0).
Description: as §1

The next assay deals with CSNK1D (Homo sapiens, UniProt P48730).
Description: as §1

The target in the next assay is T1, MST4 (Homo sapiens, UniProt Q9P289).
T1 construct: gene STK26
Description: as §1

The target of another assay is FLT3-autoinhibited (Homo sapiens, UniProt P36888).
Description: as §1

A further assay addresses PAK4 (Homo sapiens, UniProt O96013).
Description: as §1

The next assay concerns the target ALK(L1196M) (Homo sapiens, UniProt Q9UM73, L1196M).
Description: as §1

Another assay addresses EPHB6 (Homo sapiens, UniProt O15197).
Description: as §1

The next assay concerns the target KIT(V559D,V654A) (Homo sapiens, UniProt P10721, V559D/V654A).
Description: as §1

The next assay concerns the target PIM3 (Homo sapiens, UniProt Q86V86).
Description: as §1

The target of a further assay is DYRK2 (Homo sapiens, UniProt Q92630).
Description: as §1

In the next assay the target is ERBB4 (Homo sapiens, UniProt Q15303).
Description: as §1

The target in another assay is MAST1 (Homo sapiens, UniProt Q9Y2H9).
MAST1, sequence (Q9Y2H9 whole entry): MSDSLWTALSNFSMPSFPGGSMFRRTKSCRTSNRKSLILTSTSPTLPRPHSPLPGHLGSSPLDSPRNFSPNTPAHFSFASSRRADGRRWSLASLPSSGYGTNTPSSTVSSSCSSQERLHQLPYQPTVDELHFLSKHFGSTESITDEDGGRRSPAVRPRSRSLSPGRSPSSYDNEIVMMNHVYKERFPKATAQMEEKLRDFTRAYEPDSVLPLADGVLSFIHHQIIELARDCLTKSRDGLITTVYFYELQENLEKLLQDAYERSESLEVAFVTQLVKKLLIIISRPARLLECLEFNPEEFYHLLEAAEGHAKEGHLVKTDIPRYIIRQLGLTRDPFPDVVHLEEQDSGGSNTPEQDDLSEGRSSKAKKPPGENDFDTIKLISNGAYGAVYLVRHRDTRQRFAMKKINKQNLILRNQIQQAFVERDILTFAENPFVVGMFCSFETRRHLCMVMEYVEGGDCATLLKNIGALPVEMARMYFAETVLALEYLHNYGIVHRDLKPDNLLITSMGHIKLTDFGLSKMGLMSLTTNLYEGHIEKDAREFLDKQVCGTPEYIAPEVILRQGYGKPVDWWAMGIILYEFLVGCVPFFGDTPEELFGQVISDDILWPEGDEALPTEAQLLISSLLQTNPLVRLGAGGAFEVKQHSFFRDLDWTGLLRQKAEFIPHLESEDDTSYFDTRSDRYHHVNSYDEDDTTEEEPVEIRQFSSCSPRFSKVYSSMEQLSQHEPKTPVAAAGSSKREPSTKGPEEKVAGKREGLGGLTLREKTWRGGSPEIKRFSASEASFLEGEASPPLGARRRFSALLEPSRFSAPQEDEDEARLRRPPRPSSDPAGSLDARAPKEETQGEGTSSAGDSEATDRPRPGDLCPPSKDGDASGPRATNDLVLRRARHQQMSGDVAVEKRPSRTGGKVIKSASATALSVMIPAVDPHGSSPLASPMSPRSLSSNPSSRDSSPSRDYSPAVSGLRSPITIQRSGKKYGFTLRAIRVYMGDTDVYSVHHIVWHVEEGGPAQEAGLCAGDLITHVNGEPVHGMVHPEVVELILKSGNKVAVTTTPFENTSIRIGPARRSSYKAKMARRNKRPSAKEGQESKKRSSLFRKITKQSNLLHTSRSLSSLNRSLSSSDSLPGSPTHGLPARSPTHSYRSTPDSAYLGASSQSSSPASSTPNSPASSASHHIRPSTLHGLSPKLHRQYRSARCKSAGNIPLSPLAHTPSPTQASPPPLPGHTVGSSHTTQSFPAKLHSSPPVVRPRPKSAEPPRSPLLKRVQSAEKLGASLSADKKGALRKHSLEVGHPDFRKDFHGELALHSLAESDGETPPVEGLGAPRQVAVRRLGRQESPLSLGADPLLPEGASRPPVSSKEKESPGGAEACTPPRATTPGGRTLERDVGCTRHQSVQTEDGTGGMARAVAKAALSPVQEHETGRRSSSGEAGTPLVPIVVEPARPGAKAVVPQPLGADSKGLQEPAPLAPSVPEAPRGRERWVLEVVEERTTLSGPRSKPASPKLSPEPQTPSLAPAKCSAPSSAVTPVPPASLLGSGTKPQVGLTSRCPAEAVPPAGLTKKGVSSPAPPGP
Description: as §1

PIK3CA(E545A), sequence (P42336 whole entry E545A): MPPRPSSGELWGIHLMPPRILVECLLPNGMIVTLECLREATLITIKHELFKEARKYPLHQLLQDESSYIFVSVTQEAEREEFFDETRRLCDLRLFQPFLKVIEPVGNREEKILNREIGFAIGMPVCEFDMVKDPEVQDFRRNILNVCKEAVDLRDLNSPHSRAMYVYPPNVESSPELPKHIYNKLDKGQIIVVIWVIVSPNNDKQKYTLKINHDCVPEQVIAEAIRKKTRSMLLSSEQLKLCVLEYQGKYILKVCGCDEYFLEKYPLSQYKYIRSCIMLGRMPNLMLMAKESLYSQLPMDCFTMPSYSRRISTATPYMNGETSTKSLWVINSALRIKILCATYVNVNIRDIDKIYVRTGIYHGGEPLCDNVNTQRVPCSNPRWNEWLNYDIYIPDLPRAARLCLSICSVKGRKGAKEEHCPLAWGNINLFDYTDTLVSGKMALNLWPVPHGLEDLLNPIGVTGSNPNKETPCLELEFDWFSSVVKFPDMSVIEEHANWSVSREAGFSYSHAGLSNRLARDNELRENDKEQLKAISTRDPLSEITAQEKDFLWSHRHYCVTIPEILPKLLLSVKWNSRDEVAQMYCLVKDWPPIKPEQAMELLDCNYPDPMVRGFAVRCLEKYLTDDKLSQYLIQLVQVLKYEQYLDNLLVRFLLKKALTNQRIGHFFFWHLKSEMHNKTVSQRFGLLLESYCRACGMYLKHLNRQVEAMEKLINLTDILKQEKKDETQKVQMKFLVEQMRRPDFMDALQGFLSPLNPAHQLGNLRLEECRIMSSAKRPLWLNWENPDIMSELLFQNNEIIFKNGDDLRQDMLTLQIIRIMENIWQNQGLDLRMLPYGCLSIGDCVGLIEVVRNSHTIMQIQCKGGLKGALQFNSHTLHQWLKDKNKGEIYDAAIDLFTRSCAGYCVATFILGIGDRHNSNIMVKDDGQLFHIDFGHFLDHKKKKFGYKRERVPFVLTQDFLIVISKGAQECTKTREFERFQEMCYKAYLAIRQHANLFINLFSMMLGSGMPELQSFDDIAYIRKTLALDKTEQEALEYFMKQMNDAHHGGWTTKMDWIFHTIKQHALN
CSNK1G1, sequence (Q9HCP0 whole entry): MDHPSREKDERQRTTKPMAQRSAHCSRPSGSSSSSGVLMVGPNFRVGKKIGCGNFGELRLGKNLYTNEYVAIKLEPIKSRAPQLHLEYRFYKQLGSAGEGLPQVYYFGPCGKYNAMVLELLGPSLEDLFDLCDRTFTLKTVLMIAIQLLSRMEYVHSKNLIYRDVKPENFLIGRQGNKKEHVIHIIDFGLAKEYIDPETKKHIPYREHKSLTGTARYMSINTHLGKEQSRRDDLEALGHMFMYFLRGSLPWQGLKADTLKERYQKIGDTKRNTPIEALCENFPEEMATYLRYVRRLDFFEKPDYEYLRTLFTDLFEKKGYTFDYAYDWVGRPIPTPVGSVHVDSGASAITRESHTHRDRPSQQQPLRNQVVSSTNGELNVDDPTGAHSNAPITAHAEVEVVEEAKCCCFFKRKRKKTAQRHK

In the case of `Cn1c(=O)[nH]c2ccc(-c3cccc(C(=O)NC4CCn5ccnc5C4)c3)cc21` (stereo not drawn) [Z36-MP5], the remaining binding at 1 µM at NLK is 59%; at PIK3C2G, 100%; on PHKG2 it was 83%; at EGFR(L747-T751del,Sins), 84%; on RIPK2, 94%; on MAP3K3 it was 55%. The remaining binding at 1 µM at FLT3(N841I) was determined as 63%; on EGFR(S752-I759del) it was 55%; at AURKC it was 100%; on MET, 96%; at LIMK2 it was 96%; on PIK3CA(E545A), 89%. The remaining binding at 1 µM at CSNK1G1 came out at 63%; on CSNK1D it was 98%; on MST4, 82%; on FLT3-autoinhibited it was 51%; on PAK4, 41%; at ALK(L1196M) it was 78%. Further, the remaining binding at 1 µM was found to be 81% on EPHB6; 76% on KIT(V559D,V654A); 85% at PIM3; 84% on DYRK2; 96% at ERBB4; 72% at MAST1.

Source of the values: publication PMC10924921, “Mi-2β promotes immune evasion in melanoma by activating EZH2 methylation” (Nature Communications, 2024).
